Assay results taken from patent US10519323B2, “Antimicrobial coatings” (AGENCY FOR SCIENCE, TECHNOLOGY AND RESEARCH, priority 2015, dated 2019).
Values after ≈ are worked out from the molar mass of the structure shown.

Tests used:
C. albicans = experiment: Minimal inhibitory concentration (MIC) of powders against C. albicans; format: cell-based, Candida albicans
Description: (§1) The minimal inhibitory concentration (MIC) of ZIF-L powders synthesized from a solution with a 2-Me-Im:Zn ratio of 7:1 was tested against E. coli, S. aureus and C. albicans. The same test was conducted for ZIF-8 powders, 2-Me-Im alone and Zn(NO3)2.4H2O alone. The MIC values in mg/mL are tabulated below.

E. coli = experiment: Minimal inhibitory concentration (MIC) of powders against E. coli; format: cell-based, Escherichia coli; settings: * = tested chemical formed precipitate in TSB medium
Description: as §1

S. aureus = experiment: Minimal inhibitory concentration (MIC) of powders against S. aureus; format: cell-based, Staphylococcus aureus; settings: * = tested chemical formed precipitate in TSB medium
Description: as §1

Row | MIC (C. albicans; Candida albicans) | MIC (E. coli; Escherichia coli) | MIC (S. aureus; Staphylococcus aureus) | SMILES | MIC, C. albicans (C. albicans) | MIC, E. coli (E. coli) | MIC, S. aureus (S. aureus)
1 | 6.2 mg/mL (≈ 75.5 mM) | 12.5 mg/mL (≈ 152 mM) | 25 mg/mL (≈ 304 mM) | Cc1ncc[nH]1 [2-Me-Im, 2-methylimidazole] | – | – | –
2 | – | – | – | O.O.O.O.O=[N+]([O-])[O-].O=[N+]([O-])[O-].[Zn+2] [Zn(NO3)2•4H2O, Zn(NO3)2.4H2O] | 0.8 mg/mL | 3.1* mg/mL | >50* mg/mL
